Our source for the IC50 values is ChEMBL document CHEMBL3727364, “Resorcinol n-aryl amide compounds, for use as pyruvate dehydrogenase kinase inhibitors” (2015).

As a reminder, the IC50 is the concentration needed to halve the response being measured. High values mean weaker potency in that assay, low ones greater potency in that assay.

Chain of [Pyruvate dehydrogenase (acetyl-transferring)] kinase isozyme 1, mitochondrial (Q15118 whole entry): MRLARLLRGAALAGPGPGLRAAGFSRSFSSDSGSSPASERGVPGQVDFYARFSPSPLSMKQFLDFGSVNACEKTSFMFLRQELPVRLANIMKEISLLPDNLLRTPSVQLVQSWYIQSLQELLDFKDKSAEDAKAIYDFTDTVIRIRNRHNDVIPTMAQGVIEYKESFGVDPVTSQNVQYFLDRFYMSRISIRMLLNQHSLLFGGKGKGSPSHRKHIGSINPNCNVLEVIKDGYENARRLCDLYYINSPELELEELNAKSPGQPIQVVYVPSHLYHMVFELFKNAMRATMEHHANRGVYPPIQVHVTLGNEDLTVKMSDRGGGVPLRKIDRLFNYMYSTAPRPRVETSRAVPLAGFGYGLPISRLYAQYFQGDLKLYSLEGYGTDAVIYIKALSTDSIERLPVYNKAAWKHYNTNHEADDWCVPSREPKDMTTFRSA

This experiment has as its target [Pyruvate dehydrogenase (acetyl-transferring)] kinase isozyme 1, mitochondrial (Homo sapiens, UniProt Q15118). Nature of the experiment: Binding affinity to pyruvate dehydrogenase kinase 1 (unknown origin) incubated for 90 mins by VER-00160364 probe based fluorescence polarization assay.
On to `Cc1nc(-c2ccc(N(Cc3cccnc3)C(=O)c3ccc(O)cc3O)cc2)c2ccccc2n1`, for which the IC50 was 100 nM.
To `O=C(c1ccc(O)cc1O)N(Cc1cccnc1)c1ccc(-c2ccc(Cl)cc2Cl)cc1` belongs 1000 nM.
To `Cc1nccn1-c1ccc(-c2ccc(N(Cc3cccnc3)C(=O)c3ccc(O)cc3O)cc2)nn1` belongs 100 nM.
To `O=C(c1ccc(O)cc1O)N(Cc1cccnc1)c1ccc(-c2ccc(NC3CC3)nn2)cc1` belongs 1000 nM; to `Nc1ccc(-c2ccc(N(Cc3cccnc3)C(=O)c3ccc(O)cc3O)cc2)nn1`, 1000 nM; to `O=C(c1ccc(O)cc1O)N(Cc1cccnc1)c1ccc(-c2ccc(-n3ccnc3)nn2)cc1`, 1000 nM.
`Cc1cc2cc(F)ccc2nc1-c1ccc(N(Cc2cccnc2)C(=O)c2ccc(O)cc2O)cc1`: the IC50 came out at 100 nM.
In turn, `CSc1nc(-c2ccc(N(Cc3cccnc3)C(=O)c3ccc(O)cc3O)cc2)c2cc[nH]c2n1` had an IC50 of 100 nM.
For the compound `N#Cc1cncnc1-c1ccc(N(Cc2cccnc2)C(=O)c2ccc(O)cc2O)cc1`, the IC50 came out at 100 nM.
`CCc1cc2ccccc2nc1-c1ccc(N(Cc2cccnc2)C(=O)c2ccc(O)cc2O)cc1`: the IC50 is 100 nM.
Then `COc1ccc(-c2ccc(N(Cc3cccnc3)C(=O)c3ccc(O)cc3O)cc2)c(OC)c1`, with 1000 nM; and `COc1ccc(-c2ccc(N(Cc3cccnc3)C(=O)c3ccc(O)cc3O)cc2)c(Cl)c1`, with 1000 nM.
`COc1cc2ncnc(-c3ccc(N(Cc4cccnc4)C(=O)c4ccc(O)cc4O)cc3)c2cc1OC`: the IC50 is 1000 nM.
Compound `Cc1cc2ccc(F)cc2nc1-c1ccc(N(Cc2cccnc2)C(=O)c2ccc(O)cc2O)cc1` showed an IC50 of 100 nM.
In the case of `CSc1nc2c(c(-c3ccc(N(Cc4cccnc4)C(=O)c4ccc(O)cc4O)cc3)n1)CCC2`, the IC50 turned out to be 100 nM.
Then `CNc1nccc(-c2ccc(N(Cc3cccnc3)C(=O)c3ccc(O)cc3O)cc2)n1`, with 100 nM; and `Cc1cnc(-c2ccc(N(Cc3cccnc3)C(=O)c3ccc(O)cc3O)cc2)c(C)n1`, with 10 nM; and `N#Cc1cccc(-c2ccc(N(Cc3cccnc3)C(=O)c3ccc(O)cc3O)cc2)c1`, with 1000 nM.
As for `O=C(c1ccc(O)cc1O)N(Cc1cccnc1)c1ccc(-c2ccc(N3CCCC3)nn2)cc1`, the IC50 is 100 nM.
`O=C(c1ccc(O)cc1O)N(Cc1cccnc1)c1ccc(-c2nc3ccc(Cl)cc3cc2CO)cc1`: the IC50 worked out at 10 nM.
Then `Cc1cncnc1-c1ccc(N(Cc2cccnc2)C(=O)c2ccc(O)cc2O)cc1`, with 100 nM.
Then `O=C(c1ccc(O)cc1O)N(Cc1cccnc1)c1ccc(-c2nc3ccccc3o2)cc1`, with 1000 nM; and `Cc1nccnc1-c1ccc(N(Cc2cccnc2)C(=O)c2ccc(O)cc2O)cc1`, with 100 nM; and `O=C(c1ccc(O)cc1O)N(Cc1cccnc1)c1ccc(-c2nncc3ccccc23)cc1`, with 100 nM.
To `CCOC(=O)c1nc(C)nc(-c2ccc(N(Cc3cccnc3)C(=O)c3ccc(O)cc3O)cc2)c1C` belongs 100 nM.
The compound `Cc1c(-c2ccc(N(Cc3cccnc3)C(=O)c3ccc(O)cc3O)cc2)ccc2[nH]ncc12` came in with an IC50 of 1000 nM.
To `O=C(c1ccc(O)cc1O)N(Cc1cccnc1)c1ccc(-c2ncnc3cccc(F)c23)cc1` belongs 10 nM; to `COc1cnc(-c2ccc(N(Cc3cccnc3)C(=O)c3ccc(O)cc3O)cc2)cc1OC`, 100 nM.
Then `CCc1nccnc1-c1ccc(N(Cc2cccnc2)C(=O)c2ccc(O)cc2O)cc1`, with 100 nM; and `O=C(c1ccc(O)cc1O)N(Cc1cccnc1)c1ccc(-c2ncccc2CO)cc1`, with 100 nM.
`Cc1cn(-c2ccc(-c3ccc(N(Cc4cccnc4)C(=O)c4ccc(O)cc4O)cc3)nn2)cn1` displayed an IC50 of 100 nM.
To `CCOc1ccc2nc(-c3ccc(N(Cc4cccnc4)C(=O)c4ccc(O)cc4O)cc3)c(C)cc2c1` belongs 100 nM.
Then `CCOC(=O)c1nc(-c2ccc(N(Cc3cccnc3)C(=O)c3ccc(O)cc3O)cc2)c2ccccc2n1`, with 100 nM; and `NC(=O)c1nc(-c2ccc(N(Cc3cccnc3)C(=O)c3ccc(O)cc3O)cc2)c2ccccc2n1`, with 100 nM; and `O=C(c1ccc(O)cc1O)N(Cc1cccnc1)c1ccc(-c2nc3ccccc3cc2CO)cc1`, with 100 nM.
To `CCNc1cc(-c2ccc(N(Cc3cccnc3)C(=O)c3ccc(O)cc3O)cc2)ncn1` belongs 1000 nM; to `O=C(c1ccc(O)cc1O)N(Cc1cccnc1)c1ccc(-c2nc3ccccc3nc2C(F)(F)F)cc1`, 100 nM.
With `O=C(c1ccc(O)cc1O)N(Cc1cccnc1)c1ccc(-c2nc(C(F)(F)F)nc3ccccc23)cc1`, the IC50 is 100 nM.
For the compound `Cc1cc(-c2ccc(N(Cc3cccnc3)C(=O)c3ccc(O)cc3O)cc2)nnc1Cl`, the IC50 is 1000 nM.
The compound `O=C(c1ccc(O)cc1O)N(Cc1cccnc1)c1ccc(-c2ccccc2Cl)cc1` came in with an IC50 of 1000 nM.
In turn, `Cc1cc2cccc(C)c2nc1-c1ccc(N(Cc2cccnc2)C(=O)c2ccc(O)cc2O)cc1` registered an IC50 of 1000 nM.
Then `O=C(c1ccc(O)cc1O)N(Cc1cccnc1)c1ccc(-c2cnc3ccccc3n2)cc1`, with 1000 nM; and `O=C(c1ccc(O)cc1O)N(Cc1cccnc1)c1ccc(-c2ccc(Cl)nc2)cc1`, with 1000 nM; and `O=C(c1ccc(O)cc1O)N(Cc1cccnc1)c1ccc(-c2ccncc2C(F)(F)F)cc1`, with 100 nM.
Take `CCCc1cncnc1-c1ccc(N(Cc2cccnc2)C(=O)c2ccc(O)cc2O)cc1`: the IC50 turned out to be 100 nM.
`Cc1ccc(-c2ccc(N(Cc3cccnc3)C(=O)c3ccc(O)cc3O)cc2)c(Cl)c1`: the IC50 amounted to 1000 nM.
To `O=C(c1ccc(O)cc1O)N(Cc1cccnc1)c1ccc(-c2nc(-c3ccccc3)nc3ccccc23)cc1` belongs 1000 nM; to `Cc1cc2cc(Cl)ccc2nc1-c1ccc(N(Cc2cccnc2)C(=O)c2ccc(O)cc2O)cc1`, 100 nM; to `Cc1cc(-c2ccc(N(Cc3cccnc3)C(=O)c3ccc(O)cc3O)cc2)cnc1Cl`, 1000 nM.
For `COc1ccccc1-c1ccc(N(Cc2cccnc2)C(=O)c2ccc(O)cc2O)cc1`, the IC50 came out at 1000 nM.
To `O=C(c1ccc(O)cc1O)N(Cc1cccnc1)c1ccc(-c2ccc(N3CCOCC3)nn2)cc1` belongs 1000 nM.
As to `CNc1nnc(-c2ccc(N(Cc3cccnc3)C(=O)c3ccc(O)cc3O)cc2)c2ccccc12`, the IC50 turned out to be 100 nM.
In turn, `O=C(c1ccc(O)cc1O)N(Cc1cccnc1)c1ccc(-c2nc(-c3ccsc3)nc3ccccc23)cc1` had an IC50 of 1000 nM.
To `O=C(c1ccc(O)cc1O)N(Cc1cccnc1)c1ccc(-c2nc3cc(Cl)ccc3o2)cc1` belongs 1000 nM; to `CC(=O)Nc1ccc(-c2ccc(N(Cc3cccnc3)C(=O)c3ccc(O)cc3O)cc2)c(C)c1`, 100 nM; to `Cc1cc(Cl)nnc1-c1ccc(N(Cc2cccnc2)C(=O)c2ccc(O)cc2O)cc1`, 10 nM.
For the compound `O=C(c1ccc(O)cc1O)N(Cc1cccnc1)c1ccc(-c2ncnc3ccc(Cl)cc23)cc1`, the IC50 stood at 100 nM.
Then `COc1ccc2nc(-c3ccc(N(Cc4cccnc4)C(=O)c4ccc(O)cc4O)cc3)c(C)cc2c1`, with 100 nM.
With `Cc1c(Cl)ncc2cc(-c3ccc(N(Cc4cccnc4)C(=O)c4ccc(O)cc4O)cc3)ccc12`, the IC50 came to 1000 nM.
To `O=C(c1ccc(O)cc1O)N(Cc1cccnc1)c1ccc(-c2cc3cncnc3[nH]2)cc1` belongs 1000 nM.
